# Several values for one entry are separate records, joined by “and”; a condition that tells them apart may be missing. Equal entries are not always repeated. Activity calls are given as the source filed them. No cut-off for these calls is given here.
# Experiments:
# Mus musculus [1] = experiment: In vivo antitumor activity against leukemia P388 in mice after intraperitoneal administration at a dose of 400 mg/kg once a day for 1 and 5 days; type: functional
# [2] = In vitro inhibitory activity against growth of KB cells; type: functional, Homo sapiens; conditions: for IC50: Homo sapiens, KB, read-out: ID50 (the source's name)
# Mus musculus [3] = experiment: In vivo antitumor activity against leukemia P388 in mice after intraperitoneal administration at a dose of 200 mg/kg once a day for 1 and 5 days; type: functional
# Mus musculus [4] = experiment: In vivo antitumor activity against leukemia P388 in mice after intraperitoneal administration at a dose of 100 mg/kg once a day for 1 and 5 days; type: functional
# Mus musculus [5] = experiment: Compound was tested for inhibitory activity against P388 leukemia in mice at 400 mg/kg; type: functional, organism-based; design: dose 400 mg/kg
# Mus musculus [6] = experiment: In vivo antitumor activity against leukemia P388 in mice after intraperitoneal administration of the compound at a dose of 200 mg/kg once a day for 1 and 5 days; type: functional
# Mus musculus [7] = experiment: In vivo antitumor activity against leukemia P388 in mice after intraperitoneal administration once a day for 1 and 5 days; type: functional
# Mus musculus [8] = experiment: In vivo antitumor activity against leukemia P388 in mice after intraperitoneal administration at a dose of 25 mg/kg once a day for 1 and 5 days; type: functional
# Mus musculus [9] = experiment: In vivo antitumor activity against leukemia P388 in mice after intraperitoneal administration at a dose of 50 mg/kg once a day for 1 and 5 days; type: functional
# Mus musculus [10] = experiment: In vivo antitumor activity against leukemia P388 in mice after intraperitoneal administration at a dose of 12.5 mg/kg once a day for 1 and 5 days; type: functional
Compound,ID50 [2] [µM],IC50 [2] [µg/mL],Activity (Mus musculus [5]),further results
COc1ccc(C(NC(=O)c2ccccc2)c2ccc(C(C)C)cc(=O)c2O)cc1 (stereo unspecified),4.2,1.7,–,T/C (Mus musculus [1]): 131%; T/C (Mus musculus [3]): 110%; T/C (Mus musculus [4]): 104%
Clc1ccc2oc(SCC3OCCc4ccccc43)nc2c1 (stereo unspecified),18,6.1,inactive,–
CC1(C)CC(=O)C(C2OCCc3ccccc32)=C(O)C1 (stereo unspecified),368,> 100,inactive,–
COc1ccc(C(c2ccc(C(C)C)cc(=O)c2O)n2c(=S)oc3ccccc32)cc1 (stereo unspecified),8.5,3.7,–,T/C (Mus musculus [1]): 133%; T/C (Mus musculus [6]): 105%; T/C (Mus musculus [4]): 113%
CC(=O)C1=C(O)CN(C2OCCc3ccccc32)C1=O (stereo unspecified),366,> 100,inactive,–
Oc1ccc(C2OCCc3ccccc32)cc1 (stereo unspecified),119,27,inactive,–
Oc1ccccc1C1OCCc2ccccc21 (stereo unspecified),90,20.5,inactive,–
Cc1cc(O)c(C(C)C)cc1C1OCCc2ccccc21 (stereo unspecified),57,16,inactive,–
S=c1oc2ccc(Cl)cc2n1CC1OCCc2ccccc21 (stereo unspecified),28,8.9,inactive,–
CCOC(c1ccccc1)c1ccc(C(C)C)cc(=O)c1O (stereo unspecified),–,–,–,T/C (Mus musculus [7]): 96%; T/C (Mus musculus [8]): 97%
O=C1c2ccccc2CC1C1OCCc2ccccc21 (stereo unspecified),144,38,inactive,–
O=C(c1ccccc1)C(c1ccccc1)C1OCCc2ccccc21 (stereo unspecified),305,> 100,inactive,–
O=C1c2ccccc2CCC1C1OCCc2ccccc21 (stereo unspecified),151,42,inactive,–
COc1ccc(C(NC(C)=O)c2ccc(C(C)C)cc(=O)c2O)cc1 (stereo unspecified),18,6,–,T/C (Mus musculus [1]): 108%; T/C (Mus musculus [3]): 92%; T/C (Mus musculus [4]): 92%
O=c1oc2ccccc2c(O)c1C1OCCc2ccccc21 (stereo unspecified),340,100,inactive,–
Oc1ncc(C2OCCc3ccccc32)c(O)n1 (stereo unspecified),410,> 100,inactive,–
COc1ccc(C(c2oc(CO)cc(=O)c2O)c2oc(CO)cc(=O)c2O)cc1,249,100,–,T/C (Mus musculus [9]): 102%; T/C (Mus musculus [3]): 102%; T/C (Mus musculus [4]): 98%
CCOC(c1ccc(OC)cc1)c1ccc(C(C)C)cc(=O)c1O (stereo unspecified),–,0.5,–,T/C (Mus musculus [9]): 119%; T/C (Mus musculus [10]): 96%; T/C (Mus musculus [8]): 109%
COC(=O)c1ccc(O)c(C2OCCc3ccccc32)c1 (stereo unspecified),352,> 100,inactive,–
CC(C)c1ccc(C(Sc2ccccc2)c2ccccc2)c(O)c(=O)c1 (stereo unspecified),1.4,0.5,–,T/C (Mus musculus [1]): 113%; T/C (Mus musculus [3]): 135%; T/C (Mus musculus [4]): 108%
S=c1oc2ccc(Cl)cc2n1C1OCCc2ccccc21 (stereo unspecified),268,85,inactive,–
Cc1cc(O)c(C(C)C)cc1C(c1ccccc1)c1cc(C(C)C)c(O)cc1C,34,13,–,T/C (Mus musculus [7]): 102% and 100% and 87%
